Test results from article PMC13233820, “Recruitment of Mre11 to recombination sites during meiosis” (Nature Communications, 2026).

Assays:
[1] = tested on: supercoiled pUC19 plasmid DNA; assay: In vitro condensation assay of MRX complex (fluorescence microscopy); type: biochemical; conditions: in the presence of plasmid DNA
Description: Fig. 1 Mre11 and the MRX complex assemble DNA-dependent condensates in vitro. a, c Effect of the presence of plasmid DNA on condensation of (a) Alexa488-labeled Mre11 (n = 11 and 9 fields of view for reactions without and with DNA, respectively) and (c) eGFP-tagged MRX (n = 11 (- DNA) and 9 ( + DNA)). Experiments were performed without PEG. b, d Effect of DNase I, in the absence of PEG, on (b) Mre11 (n = 9 (no treatment) and 11 (DNase I)) and (d) MRX (n = 9 (no treatment) and 11 (DNase I)) condensates. Condensates were pre-assembled for 20 min with 5.7 nM pUC19 prior to challenge. Quantification represents total foci intensity (green) in a field of view and total number of foci per 1000 µm^2 (magenta). Foci intensity is normalized to the mean intensity of samples with DNA for (a, c) and untreated samples for (b, d). […] Quantification represents total foci intensity (green) in a field of view (normalized to the mean of + PEG images) and total number of foci per 1000 µm^2 (magenta). […]
Fig. 2 The C-terminal IDR of Mre11 is required for condensation. a AlphaFold2 predicted model of Mre11 (AF-P32829-F1-v4). […] Quantification represents total fluorescence intensity (green) in a field of view and total number of foci per 1000 µm^2 (magenta). […]

Mre11^myc yeast strains = assay: MMS and CPT sensitivity assay (spotted serial dilutions); type: cell-based, Saccharomyces cerevisiae; conditions: ten-fold serial dilutions on YPD; for Sensitivity of mre11-ΔC49 mutant (in words): mre11-ΔC49 strain; for Sensitivity of mre11-ΔIDR mutant (in words): mre11-ΔIDR strain compared with wild type
Description: (§1) Following standard protocols, strains were patched on YPG plates, mated and streaked on YPD plates, and selected diploid colonies grown in liquid YPD at 30 °C, 250 rpm, overnight. For meiotic synchronization, diploid cultures grown overnight in YPD were transferred to YPA (1% yeast extract, 2% peptone, 1% potassium acetate) at OD600 0.2 and grown for 12–14 h at 30 °C, 250 rpm. Once the cultures reached OD600 between 1.2–1.6, cells were washed once with prewarmed sterile water and immediately transferred to sporulation medium supplemented with amino acids (320 µL amino acid complementation media for 100 mL of sporulation media (SPM)) and were kept shaking at 30 °C, 250 rpm during the entire meiotic time-course. For MMS and CPT (Sigma) sensitivity assays, serial dilutions of overnight cultures were spotted on freshly prepared YPD-MMS or YPD-CPT plates containing the indicated percentage of MMS or CPT, respectively. Plates were grown for two days at 30 °C. For immunofluorescence of vegetatively growing cells, overnight cultures were refreshed by diluting to OD600 0.2 and grown for 3-4 hours to reach OD600 1.2–1.4 before subjecting to MMS or MMS followed by 5% 1,6-hexanediol treatment. For 5% 1,6-hexanediol treatment, cells were first converted to spheroplasts and then treated with 5% 1,6-hexanediol for 4-5 min. Spheroplasts were then immediately washed, lysed, and fixed using the protocol described below.

Mre11 condensates = type: biochemical, Saccharomyces cerevisiae; conditions: 500 mM NaCl, brief exposure
Description: Experiments were performed without PEG. b, d Effect of DNase I, in the absence of PEG, on (b) Mre11 (n = 9 (no treatment) and 11 (DNase I)) and (d) MRX (n = 9 (no treatment) and 11 (DNase I)) condensates. Condensates were pre-assembled for 20 min with 5.7 nM pUC19 prior to challenge. Quantification represents total foci intensity (green) in a field of view and total number of foci per 1000 µm^2 (magenta). Foci intensity is normalized to the mean intensity of samples with DNA for (a, c) and untreated samples for (b, d). Error bars represent mean ± SD from the indicated (n) fields of view. e, f Effect of the presence of 5% PEG-3350 on (e) Mre11 (n = 12) and (f) MRX (n = 11) condensate formation. Quantification represents total foci intensity (green) in a field of view (normalized to the mean of + PEG images) and total number of foci per 1000 µm^2 (magenta). Error bars represent mean ± SD from the indicated (n) fields of view. g–j Effect of challenge with 5% 1,6-hexanediol and 0.5 M NaCl on (g, h) Mre11 and (i, j) MRX condensates. […] In the control reaction, an equivalent volume (1/20) of water was added instead of hexanediol. […]
(§2) Proteins were diluted to a 10 × stock of their appropriate working concentrations in their respective storage buffers. […] Images were analyzed with ImageJ using a custom-made script. […] Data were analyzed using Graphpad Prism 10.4.0.

MRX condensates = type: biochemical, Saccharomyces cerevisiae; conditions: 500 mM NaCl, brief exposure
Description: Experiments were performed without PEG. b, d Effect of DNase I, in the absence of PEG, on (b) Mre11 (n = 9 (no treatment) and 11 (DNase I)) and (d) MRX (n = 9 (no treatment) and 11 (DNase I)) condensates. Condensates were pre-assembled for 20 min with 5.7 nM pUC19 prior to challenge. Quantification represents total foci intensity (green) in a field of view and total number of foci per 1000 µm^2 (magenta). Foci intensity is normalized to the mean intensity of samples with DNA for (a, c) and untreated samples for (b, d). Error bars represent mean ± SD from the indicated (n) fields of view. e, f Effect of the presence of 5% PEG-3350 on (e) Mre11 (n = 12) and (f) MRX (n = 11) condensate formation. Quantification represents total foci intensity (green) in a field of view (normalized to the mean of + PEG images) and total number of foci per 1000 µm^2 (magenta). Error bars represent mean ± SD from the indicated (n) fields of view. g–j Effect of challenge with 5% 1,6-hexanediol and 0.5 M NaCl on (g, h) Mre11 and (i, j) MRX condensates. Condensates were assembled for 20 min prior to challenge and incubated for 15 min and 10 min, respectively, after challenge. […]
as §2

[2] = tested on: MMS-induced Mre11^myc foci in vegetatively growing yeast; assay: Immunofluorescence of MMS-induced Mre11myc foci, vegetative yeast nuclear spreads; type: cell-based, Saccharomyces cerevisiae; conditions: MMS-treated, no hexanediol
Description: as §1
Meiotic cultures were harvested 4 h after transfer to SPM, washed with sterile cold water, and resuspended in 1 M sorbitol, 1 × PBS (pH 7), 10 mM DTT, 0.5 mg/ml zymolyase 20 T, and incubated for 30 mins at 30 °C with gentle shaking. […]
Slides were blocked with 90% FBS, 1 × PBS for 1 h at room temperature in a humid chamber and then incubated with primary antibody (mouse mAb anti-myc, 1:200 (2276S, Cell Signaling Technology), rabbit anti-phospho H2A-S129, 1:200 (ab15083, abcam)) diluted in 3% BSA, 1 × PBS in a humid chamber for 2 h at 37 °C or overnight at 4 °C. […] Images were captured on a Zeiss Axio Observer with a 100 ×/1.4 NA oil immersion objective and were analyzed in ImageJ.

MRX: Mre11-Rad50-Xrs2 complex, recombinant from Sf9 cells
Condensate formation (in words) [1]: form large clusters visible by fluorescence microscopy

CC[C@@]1(O)C(=O)OCc2c1cc1n(c2=O)Cc2cc3ccccc3nc2-1 [CPT, camptothecin]
Sensitivity of mre11-ΔC49 mutant (in words) (Mre11^myc yeast strains): resistant | Sensitivity of mre11-ΔIDR mutant (in words) (Mre11^myc yeast strains): as resistant to MMS or CPT as wild-type cells

[Cl-].[Na+] [NaCl]
Effect on Mre11 foci intensity (in words) (Mre11 condensates): strongly reduced foci intensity | Effect on MRX foci intensity (in words) (MRX condensates): strongly reduced foci intensity

COS(C)(=O)=O [MMS, methylmethanesulfonate]
Percentage of aggregates [2]: 0 | Sensitivity of mre11-ΔC49 mutant (in words) (Mre11^myc yeast strains): resistant | Sensitivity of mre11-ΔIDR mutant (in words) (Mre11^myc yeast strains): as resistant to MMS or CPT as wild-type cells
